# Earlier results, collected in US20110159092A1 (MICRO LABS LIMITED, priority 2009, published 2011).
# Columns and labels:
# [1] = test system: bacteria; conditions: background statement
# [2] = test system: streptococci; conditions: majority of strains
# [3] = test system: enterococci; conditions: against enterococci
# [4] = test system: staphylococci; conditions: against staphylococci
compound,measurement,setting,value
"CC(=O)NC[C@H]1CN(c2ccc(N3CCOCC3)c(F)c2)C(=O)O1 [Linezolid, (S)-N-({3-[3-fluoro-4-(morpholin-4-yl)phenyl]-2-oxo-1,3-oxazolidin-5-yl}methyl)acetamide]",MIC,[1],1 to 4 µg/mL
same,time-kill result,[2],bactericidal
same,time-kill result,[3],bacteriostatic
same,time-kill result,[4],bacteriostatic
